Series [1] in a line: Cell viability assay (MTT), MCF-10A. Format: cell-based. The note with it: human, MCF-10A mammary gland epithelial cells, MCF-10A cells, incubated 4 days. The method, then: To test the viability of new compounds, the human mammary gland epithelial (MCF-10A) cell line was used ([Youssif et al., 2019]; [Mahmoud et al., 2022]). MCF-10A cells were incubated with compounds 3a-f and 5a-l for 4 days before being tested for viability using the MTT assay.
MTT assay was carried out to study the effect of compounds on mammary epithelial cells (MCF-10A) (Youssif, B. G. M. et al., 2019; Mahmoud, M. A., et al., 2022). The medium in which cells were propagated contained Dulbecco's modified Eagle's medium (DMEM)/ Ham's F-12 medium (1:1) supplemented with epidermal growth factor (20 ng/mL), hydrocortisone (500 ng/mL), insulin (10 μg/mL), 2 mM glutamine and 10% foetal calf serum. After every 2-3 days, the cells were passaged using trypsin ethylenediamine tetra acetic acid (EDTA). The cells were seeded at a density of 10^4 cells mL^-1 in flat-bottomed culture plates containing 96 wells each. After 24 h, medium was removed from the plates and the compounds in (in 0.1% DMSO) were added (in 200 μL medium to yield a final concentration of 0.1% v/v) to the wells of plates. A single compound was designated with four wells followed by incubation of plates for 96h at 37°C. After incubation, medium was removed completely from the plates followed by addition of MTT (0.4 mg/mL in medium) to each well and subsequent incubation of plates for 3h. MTT (along with the medium) was removed and DMSO (150μL) was added to each well of the culture plates, followed by vortexing and subsequent measurement of absorbance (at 540 nm) using microplate reader. The data are shown as percentage inhibition of proliferation in comparison with controls containing 0.1% DMSO.

Series [2] deals with A-549 (epithelial cancer cell line). In words: Antiproliferative MTT assay, A-549. Type of series: cell-based. As to conditions: Homo sapiens, A549; A-549, MTT; read-out: Antiproliferative activity IC50 ± SEM (nM) A-549. The method, then:
Using the MTT assay ([Abdelrahman et al., 2017]; [El-Sherief et al., 2018]) and doxorubicin as the reference drug, 3a-f and 5a-l were tested for antiproliferative activity against four human cancer cell lines: Panc-1 (pancreas cancer cell line), MCF-7 (breast cancer cell line), HT-29 (colon cancer cell line), and A-549 (epithelial cancer cell line).
To explore the antiproliferative potential of compounds MTT assay was performed according to previously reported procedure (El-Sherief, H.A.M., et al., 2018; Abdelrahman, M. H., et al., 2017) using different cell lines to explore the antiproliferative potential of compounds propidium iodide fluorescence assay was performed using different cell lines. To calculate the total nuclear DNA, a fluorescent dye (propidium iodide, PI) is used which can attach to the DNA, thus offering a quick and precise technique. PI cannot pass through the cell membrane and its signal intensity can be considered as directly proportional to quantity of cellular DNA. Cells whose cell membranes are damaged or have changed permeability are counted as dead ones. The assay was performed by seeding the cells of different cell lines at a density of 3000-7500 cells/well (in 200µl medium) in culture plates followed by incubation for 24h at 37 °C in humidified 5% CO2/95% air atmospheric conditions. The medium was removed; the compounds were added to the plates at 10 µM concentrations (in 0.1% DMSO) in triplicates, followed by incubation for 48 h. DMSO (0.1%) was used as control. After incubation, medium was removed followed by the addition of PI (25 µl, 50µg/mL in water/medium) to each well of the plates. At -80 °C, the plates were allowed to freeze for 24 h, followed by thawing at 25 °C. A fluorometer (Polar-Star BMG Tech) was used to record the readings at excitation and emission wavelengths of 530 and 620 nm for each well. The percentage cytotoxicity of compounds was calculated using the following formula: […]
On the technique in general: Tetrazolium dyes change colour on reduction, which living cells bring about.

In a further series the target is T1, BRAF^V600E (Mus musculus, UniProt P28028, V585E).
T1 construct: Mouse full-length GST-tagged BRAF^V600E (7.5 ng, Invitrogen, PV3849); GST; purchased Invitrogen PV3849
In words: BRAF^V600E inhibitory assay (V600E mutant BRAF kinase assay). Type of series: biochemical. The note with it: read-out: BRAF^V600E inhibition IC50 ± SEM. The method, then: Mouse full-length GST-tagged BRAF^V600E (7.5 ng, Invitrogen, PV3849) was pre-incubated with drug (1 µL) and assay dilution buffer (4 µL) for 60 min at 25 °C. In assay dilution buffer, a solution (5 µL) containing MgCl2 (30 mM), ATP (200 µM), recombinant human full length (200 ng) […] N-terminal His-tagged MEK1 (Invitrogen) was added to start the assay, subsequent to incubation for 25 min at 25 °C. The assay was stopped using 5X protein denaturing buffer (LDS) solution (5 µL). To further denature the protein, heat (70° C) was applied for 5 min. […] 10 µL of each reaction was loaded into the precast plates and electrophoresis was allowed to proceed. After completion of electrophoresis, the front part of the precast gel plate (holding hot ATP) was cut and afterwards cast-off. The dried gel was developed using a phosphor screen. […] To study the effect of compounds on cell-based pERK1/2 activity in cancer cells, commercially available ELISA kits (Invitrogen) were used according to manufacturer’s instructions.

T1 sequence (P28028 whole entry V585E): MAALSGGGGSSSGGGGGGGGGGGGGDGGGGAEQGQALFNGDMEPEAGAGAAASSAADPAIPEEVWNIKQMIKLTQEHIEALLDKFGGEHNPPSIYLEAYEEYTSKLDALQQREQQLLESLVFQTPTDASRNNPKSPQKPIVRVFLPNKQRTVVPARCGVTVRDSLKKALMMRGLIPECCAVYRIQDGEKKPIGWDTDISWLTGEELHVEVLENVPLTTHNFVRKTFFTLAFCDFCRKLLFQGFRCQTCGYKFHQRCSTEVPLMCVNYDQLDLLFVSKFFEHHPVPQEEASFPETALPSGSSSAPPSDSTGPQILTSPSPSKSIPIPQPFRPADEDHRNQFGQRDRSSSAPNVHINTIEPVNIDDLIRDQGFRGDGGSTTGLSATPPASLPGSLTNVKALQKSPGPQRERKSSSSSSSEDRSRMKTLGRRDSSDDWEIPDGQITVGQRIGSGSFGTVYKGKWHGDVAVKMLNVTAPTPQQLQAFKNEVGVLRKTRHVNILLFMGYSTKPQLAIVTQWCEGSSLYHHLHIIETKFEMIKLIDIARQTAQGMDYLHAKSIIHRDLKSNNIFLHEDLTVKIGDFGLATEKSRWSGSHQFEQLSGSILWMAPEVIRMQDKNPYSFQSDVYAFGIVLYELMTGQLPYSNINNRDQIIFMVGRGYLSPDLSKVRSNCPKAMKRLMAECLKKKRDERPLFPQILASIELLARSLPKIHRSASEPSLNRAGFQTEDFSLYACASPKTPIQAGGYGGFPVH

In the case of `COC(=O)/C=C1\S/C(=N\c2c[nH]c(=O)[nH]c2=O)N(Cc2ccccc2)C1=O` [Compound 5j, (Z)-Methyl-2-((Z)-3-benzyl-2-((2,4-dioxo-1,2,3,4-tetrahydropyrimidin-5-yl)imino)-4-oxothiazolidin-5-ylidene)acetate], in series [1], the viability at 4 days, 50 µM is 89%. The figures for the half-maximal inhibitory concentration (IC50) (in series [2]; at BRAF^V600E) were 1100 ± 100 nM and 115 ± 12 nM, respectively.
In series [1], `CCOC(=O)/C=C1\S/C(=N\c2c[nH]c(=O)[nH]c2=O)N(c2cccc(OC)c2)C1=O` [Compound 5c, (Z)-Ethyl-2-((Z)-2-((2,4-dioxo-1,2,3,4-tetrahydropyrimidin-5-yl)imino)-3-(3-methoxyphenyl)-4-oxo-thiazolidin-5-ylidene)acetate] showed a viability at 4 days, 50 µM of 96%. Moreover, the IC50 in series [2] amounted to 1500 ± 100 nM; on BRAF^V600E, 107 ± 10 nM.
The corresponding values for `COC(=O)/C=C1\S/C(=N\c2c[nH]c(=O)[nH]c2=O)N(c2cccc(OC)c2)C1=O` [Compound 5i, (Z)-Methyl-2-((Z)-2-((2,4-dioxo-1,2,3,4-tetrahydropyrimidin-5-yl)imino)-3-(3-methoxyphenyl)-4-oxothiazolidin-5-ylidene)acetate] are 89%, 1300 ± 100 nM and 122 ± 12 nM.
The like results for `CCOC(=O)/C=C1\S/C(=N\c2c[nH]c(=O)[nH]c2=O)N(c2ccc(C)cc2)C1=O` [Compound 5b, (Z)-Ethyl-2-((Z)-2-((2,4-dioxo-1,2,3,4-tetrahydropyrimidin-5-yl)imino)-4-oxo-3-(p-tolyl)thiazolidin-5-ylidene)acetate] were, in that order, 92%, 1200 ± 100 nM and 93 ± 8 nM.
`COc1cccc(NC(=S)Nc2c[nH]c(=O)[nH]c2=O)c1` [Compound 3c, 1-(2,4-Dioxo-1,2,3,4-tetrahydropyrimidin-5-yl)-3-(3-methoxyphenyl)thiourea] had a viability at 4 days, 50 µM in series [1] of 89%. Also, the half-inhibitory concentration (IC50) in series [2] turned out to be 1800 ± 200 nM; on BRAF^V600E, 148 ± 12 nM.
In the case of `COC(=O)/C=C1\S/C(=N\c2c[nH]c(=O)[nH]c2=O)N(c2ccc(C)cc2)C1=O` [Compound 5h, (Z)-Methyl-2-((Z)-2-((2,4-dioxo-1,2,3,4-tetrahydropyrimidin-5-yl)imino)-4-oxo-3-(p-tolyl)-thiazolidin-5-ylidene)acetate], the viability at 4 days, 50 µM in series [1] is 92%. In addition, the results for the half-maximal inhibitory concentration (IC50) (in series [2]; at BRAF^V600E) were 1400 ± 100 nM and 137 ± 12 nM, respectively.

A word on the viability: it is a read-out of living cells in per cent, often relative to untreated cells. For orientation: IC50 means the midpoint of a concentration-inhibition curve.

The values are drawn from PMC9792171, “Design and synthesis of new thiazolidinone/uracil derivatives as antiproliferative agents targeting EGFR and/or BRAF^V600E” (Frontiers in Chemistry, 2022).
